Values of other authors in US8529935B2, “Antibacterial hydrogel and use thereof in orthopedics” (Mero S.R.L., priority 2009, dated 2013).

Conditions: known from the literature

SMILES	minimum inhibiting concentration (MIC)
CN[C@H](CC(C)C)C(=O)N[C@H]1C(=O)N[C@@H](CC(N)=O)C(=O)N[C@H]2C(=O)N[C@H]3C(=O)N[C@H](C(=O)N[C@H](C(=O)O)c4cc(O)cc(O)c4-c4cc3ccc4O)[C@H](O)c3ccc(c(Cl)c3)Oc3cc2cc(c3O[C@@H]2O[C@H](CO)[C@@H](O)[C@H](O)[C@H]2O[C@H]2C[C@](C)(N)[C@H](O)[C@H](C)O2)Oc2ccc(cc2Cl)[C@H]1O [vancomycin]	1.56 to 3.12 mg/L
NC[C@H]1O[C@H](O[C@H]2[C@H](O)[C@@H](O[C@H]3O[C@H](CO)[C@@H](O)[C@H](N)[C@H]3O)[C@H](N)C[C@@H]2N)[C@H](N)C[C@@H]1O [tobramycin]	about 1 mg/l
